# Legend:
# [1] = tested on: Str. pneumoniae; assay: M.I.C. by Tube Dilution in Nutrient Broth (Examples 1 and 2); format: cell-based; settings: Streptococcus pneumoniae; Str. pneumoniae A9585 (10^-3 dilution of overnight broth culture); 45% Antibiotic Assay Broth + 50% Nutrient Broth + 5% serum
# Source text: (§1) *45% Antibiotic Assay Broth + 50% Nutrient Broth + 5% serum
# (§2) **Dilution of overnight broth culture
# [2] = tested on: Str. pyogenes; assay: as above; format: cell-based; settings: Streptococcus pyogenes; Str. pyogenes A9604 (10^-3); 45% Antibiotic Assay Broth + 50% Nutrient Broth + 5% serum
# Source text: as §1, §2
# [3] = tested on: D. pneumoniae; assay: MIC by Tube Dilution Technique in Nutrient Broth (Example 9 table); format: cell-based; settings: Streptococcus pneumoniae; Dp-4 D. pneumoniae A9585
# Source text: (§3) MIC (mcg./ml.) by Tube Dilution Technique in Nutrient Broth.
# [4] = tested on: E. cloacae; assay: as above; format: cell-based; settings: Enterobacter cloacae; El-1 E. cloacae A9656
# Source text: as §3
# [5] = tested on: E. coli; assay: as above; format: cell-based; settings: Escherichia coli
# Source text: as §3
# [6] = tested on: K. pneumoniae; assay: as above; format: cell-based; settings: Klebsiella pneumoniae
# Source text: as §3
# [7] = tested on: P. aeruginosa; assay: as above; format: cell-based; settings: Pseudomonas aeruginosa; P. aeruginosa A9843
# Source text: as §3
# [8] = tested on: P. mirabilis; assay: as above; format: cell-based; settings: Proteus mirabilis; Pm-2 P. mirabilis A9900
# Source text: as §3
# [9] = tested on: P. morganii; assay: as above; format: cell-based; settings: Morganella morganii; Pg-8 P. morganii A15153
# Source text: as §3
# [10] = tested on: S. aureus; assay: as above; format: cell-based; settings: Staphylococcus aureus
# Source text: as §3
# [11] = tested on: S. enteritidis; assay: as above; format: cell-based; settings: Salmonella enterica; Se-1 S. enteritidis A9531
# Source text: as §3
# [12] = tested on: S. marcescens; assay: as above; format: cell-based; settings: Serratia marcescens; Sm-1 S. marcescens A20019
# Source text: as §3
# [13] = tested on: S. pyogenes; assay: as above; format: cell-based; settings: Streptococcus pyogenes; Sp-3 S. pyogenes A9604
# Source text: as §3
# [14] = tested on: Mycobacterium tuberculosis; format: cell-based
# [15] = tested on: Escherichia coli, Klebsiella pneumoniae, Proteus mirabilis, Proteus vulgaris, Salmonella sp., Shigella sp. and Neisseria meningitidis; assay: Growth inhibitory activity, antibiotic dilution technique (text summary); format: cell-based; settings: growth inhibitory activity vs cephalothin, cephaloridine, cefazolin
# [16] = Stability in solution, 0.005 M phosphate buffer pH 7.4, 37° C.; format: physicochemical; settings: pH 7.4 and 37° C.
# Description: Stability in Solution. Stability in solution was determined at 37° C. in 0.005 M phosphate buffer of pH 7.4. […] Residual antibiotic activity was determined periodically over a 24-hour period by a turbidimetric assay procedure or by an antibiotic diffusion technique (cephalothin).
# [17] = Solubility in water, buffer or urine; settings: soluble as Na^+ salt, as Na^+ salt
# [18] = tested on: S. aureus; assay: Growth inhibitory activity, antibiotic dilution technique; settings: 63 strains tested
# [19] = tested on: S. pneumoniae; assay: as above; settings: Streptococcus pneumoniae, read-out: concentration inhibiting all strains
# [20] = tested on: S. pyogenes; assay: as above; settings: Streptococcus pyogenes, read-out: concentration inhibiting all strains
# [21] = tested on: S. viridans; assay: as above; settings: Streptococcus viridans, read-out: concentration inhibiting all strains
# [22] = tested on: Streptococcus faecalis; assay: as above
# [23] = tested on: Enterobacter sp. and Citrobacter sp.; assay: Growth inhibitory activity, antibiotic dilution technique (text summary); settings: compared with cephalothin, cephaloridine, cefazolin
smiles,measurement,setting,value
NCc1ccccc1CC(=O)N[C@@H]1C(=O)N2C(C(=O)O)=C(CSc3nnnn3CC(=O)O)CS[C@H]12 [Example 1],MIC,[1],0.13 µg/mL
same,MIC,[2],0.13 µg/mL
same,MIC,[3],0.16 µg/mL
same,MIC,[4],50 µg/mL
same,MIC,[5]; Ec-1 E. coli NIHJ,0.8 µg/mL
same,MIC,[5]; Ec-3 E. coli Juhl A15119,0.8 µg/mL
same,MIC,[5]; Ec-58 E. coli A9675,6.3 µg/mL
same,MIC,[6]; Kp-3 K. pneumoniae A9977,0.2 µg/mL
same,MIC,[6]; Kp-4 K. pneumoniae A15130,1.6 µg/mL
same,MIC,[7],> 100 µg/mL
same,MIC,[8],0.4 µg/mL
same,MIC,[9],6.3 µg/mL
same,MIC,[10]; Sa-2 S. aureus +50% serum,> 3.1 µg/mL
same,MIC,[10]; Sa-2 S. aureus Smith A9537,3.1 µg/mL
same,MIC,[10]; Sa-11 S. aureus BX-1633 A9606,3.1 µg/mL
same,MIC,[10]; Sa-44 S. aureus A15097,6.3 µg/mL
same,MIC,[11],0.2 µg/mL
same,MIC,[12],> 100 µg/mL
same,MIC,[13],0.16 µg/mL
same,times more active than the control compounds,[14],4 to 32
same,times more active than the reference cephalosporins,[15],2 to 16
same,half-life,[16],> 24 h
same,solubility,[17],≥ 250 mg/mL
same,number of strains of S. aureus inhibited,[18]; at 4 mcg./ml.,62 strains
same,number of strains of S. aureus inhibited,[18]; at 8 mcg./ml.,63 strains
same,MIC,[19],0.25 µg/mL
same,MIC,[20],0.5 µg/mL
same,MIC,[21],4 µg/mL
same,susceptibility of Streptococcus faecalis,[22],resistant
same,activity against Enterobacter sp. and Citrobacter sp.,[23],alone was active

# From patent US4100346A, “Certain 7(o-amino-methyl- or methylaminomethylphenyl- or cyclohexadienyl- or thienylacetamide)-3[1-carboxymethyl-(or ethyl- or propyl-)-tetrazol-5-ylthiomethyl]-3-cephem-4-carboxylic acids” (Bristol-Myers Company, priority 1976, dated 1978)
